Test system: Fusarium graminearum
Experiment: Antifungal activity against Fusarium graminearum at 100 ug after 7 days by poison-food method
Type: functional
Conditions: 168 h, read-out: IZ

`O=C1CC2c3ccc4ccccc4c3OC2N1c1cccc([N+](=O)[O-])c1` (stereo not drawn) and `O=C1CC2c3ccc4ccccc4c3OC2N1c1ccc([N+](=O)[O-])cc1` (stereo not drawn) are the same in zone of inhibition at 100 µg/disc: 25 mm for the first, 25 mm for the second.

Going from `Cc1ccc(N2C(=O)CC3c4ccc5ccccc5c4OC32)cc1` (stereo not drawn) to `O=C1CC2c3ccc4ccccc4c3OC2N1c1ccccc1` (stereo not drawn), the zone of inhibition at 100 µg/disc falls from 50 mm to 45 mm.

Work on `O=C1CC2c3ccc4ccccc4c3OC2O1` (stereo not drawn) yielded a zone of inhibition at 100 µg/disc of 45 mm.

Test system: Staphylococcus aureus
Experiment: Antibacterial activity against Staphylococcus aureus at 100 ppm after 24 hr by cup-plate method
Type: functional
Conditions: read-out: IZ

Compared with `O=C1CC2c3ccc4ccccc4c3OC2N1c1cccc([N+](=O)[O-])c1` (stereo not drawn), `O=C1CC2c3ccc4ccccc4c3OC2N1c1ccc([N+](=O)[O-])cc1` (stereo not drawn) is lower in zone of inhibition at 100 ppm: 21 mm for the first, 8 mm for the second.

Compared with `CC1(C)S[C@@H]2[C@H](NC(=O)[C@H](N)c3ccccc3)C(=O)N2[C@H]1C(=O)O` [AMPICILLIN], `O=C1CC2c3ccc4ccccc4c3OC2O1` (stereo not drawn) is higher in zone of inhibition at 100 ppm: 5 mm for the first, 10 mm for the second.

First: Cc1ccc(N2C(=O)CC3c4ccc5ccccc5c4OC32)cc1 (stereo not drawn)
Second: O=C1CC2c3ccc4ccccc4c3OC2N1c1ccccc1 (stereo not drawn)
The zone of inhibition at 100 ppm of the first is higher: 11 mm for the first, 10 mm for the second.

Test system: Escherichia coli
Experiment: Antibacterial activity against Escherichia coli at 100 ppm after 24 hr by cup-plate method
Type: functional
Conditions: read-out: IZ

First: O=C1CC2c3ccc4ccccc4c3OC2N1c1cccc([N+](=O)[O-])c1 (stereo not drawn)
Second: O=C1CC2c3ccc4ccccc4c3OC2N1c1ccc([N+](=O)[O-])cc1 (stereo not drawn)
The zone of inhibition at 100 ppm of the first is higher: 9 mm for the first, 8 mm for the second.

First: CC1(C)S[C@@H]2[C@H](NC(=O)[C@H](N)c3ccccc3)C(=O)N2[C@H]1C(=O)O [AMPICILLIN]
Second: O=C1CC2c3ccc4ccccc4c3OC2O1 (stereo not drawn)
The zone of inhibition at 100 ppm of the first is lower: 4 mm for the first, 11 mm for the second.

Compared with `Cc1ccc(N2C(=O)CC3c4ccc5ccccc5c4OC32)cc1` (stereo not drawn), `O=C1CC2c3ccc4ccccc4c3OC2N1c1ccccc1` (stereo not drawn) is higher in zone of inhibition at 100 ppm: 10 mm for the first, 11 mm for the second.

Test system: Micrococcus luteus
Experiment: Antibacterial activity against Micrococcus luteus at 100 ppm after 24 hr by cup-plate method
Type: functional
Conditions: read-out: IZ

Compared with `O=C1CC2c3ccc4ccccc4c3OC2N1c1cccc([N+](=O)[O-])c1` (stereo not drawn), `O=C1CC2c3ccc4ccccc4c3OC2N1c1ccc([N+](=O)[O-])cc1` (stereo not drawn) is higher in zone of inhibition at 100 ppm: 9 mm for the first, 10 mm for the second.

Compared with `CC1(C)S[C@@H]2[C@H](NC(=O)[C@H](N)c3ccccc3)C(=O)N2[C@H]1C(=O)O` [AMPICILLIN], `O=C1CC2c3ccc4ccccc4c3OC2O1` (stereo not drawn) is higher in zone of inhibition at 100 ppm: 5 mm for the first, 10 mm for the second.

Going from `Cc1ccc(N2C(=O)CC3c4ccc5ccccc5c4OC32)cc1` (stereo not drawn) to `O=C1CC2c3ccc4ccccc4c3OC2N1c1ccccc1` (stereo not drawn), the zone of inhibition at 100 ppm falls from 18 mm to 11 mm.

Reference: ChEMBL document CHEMBL3045575, “Synthesis of tetracyclic aza-/oxa-naphthalen-8-ones and their antimicrobial activity” (2013)
